Assay results: patent US20240262848A1, “HETEROCYCLIC COMPOUNDS, COMPOSITIONS THEREOF, AND METHODS OF TREATMENT THEREWITH” (BeiGene, Ltd., priority 2022, published 2024)

Assays:
[1] = system: pERK1/2(THR202/TYR204) level in SW620 cell line; test: KRAS G12V pERK assay in SW620 cells (HTRF); type: cell-based; settings: Homo sapiens, SW-620, Table 4, 2 hrs compound treatment
Procedure: SW620 cell line was used in this study. Cells were maintained in RPMI 1640 supplemented with 10% fetal bovine serum (Thermo Fisher), 50 units/mL penicillin and streptomycin (Thermo Fisher) and kept at 37° C. in a humidified atmosphere of 5% CO2 in air. Cells were reinstated from frozen stocks that were laid down within 30 passages from the original cells purchased. 40000 cells per well were seeded into a 96-well plate and incubated overnight. Cells were treated with a 10-point dilution series. The final compound concentration is from 0 to 10 μM. After 2 hrs compound treatment, cells were lysed, and the pERK1/2(THR202/TYR204) level in the cell lysates was detected by HTRF kit (Cisbio). In brief, a total of 16 μL of cell lysate from each well of a 96-well plate was transferred to a 384-well white assay plate. Lysate from each well was incubated with 2 μL of Eu3+-cryptate (donor) labeled anti-phospho-ERK1/2 and 2 μL of D)2 (acceptor) labeled anti-phospho-ERK1/2 antibodies (Cisbio) overnight in dark at room temperature. When donor and acceptor are in close proximity, excitation of the donor with laser triggers a Fluorescence Resonance Energy Transfer (FRET) towards the acceptor, which in turn fluoresces at 655 nm wavelength. FRET signals were measured using a PHERAstar FSX reader (BMG Labtech). IC50 determination was performed by fitting the curve of percent inhibition versus the log of the inhibitor concentration using Dotmatics.

[2] = target: GST-tagged GDP-loaded KRAS G12V (amino acids 1-169) (Homo sapiens, UniProt P01116, G12V); test: KRAS G12V probe displacement assay (TR-FRET); type: binding; settings: Table 4; KRAS G12V 2 nM, biotinylated probe 2 2.5 nM
Chain of GST-tagged GDP-loaded KRAS G12V (amino acids 1-169) (P01116 1-169 isoform P01116-2 G12V): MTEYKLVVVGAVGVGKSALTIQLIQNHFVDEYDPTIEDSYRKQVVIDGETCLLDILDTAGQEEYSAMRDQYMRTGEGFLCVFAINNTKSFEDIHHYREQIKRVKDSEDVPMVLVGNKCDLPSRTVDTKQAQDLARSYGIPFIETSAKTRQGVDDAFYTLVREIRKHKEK
Procedure: Plates are incubated at 24 °C for 1 hr. […] After 1 hr incubation at 24° C.

Row | SMILES | IC50 [1] [µM] | IC50 [2] [µM]
1 | C[C@@H]1CCOc2c(Cl)c(-c3ccc(F)c4sc(N)c(C#N)c34)c(F)c3nc(OC[C@@]45CCCN4C[C@H](F)C5)nc(c23)N1C [Example 19, 2-amino-4-((R)-9-chloro-11-fluoro-2-(((2R,7aS)-2-fluorotetrahydro-1H-pyrrolizin-7a(5H)-yl)methoxy)-4,5-dimethyl-4,5,6,7-tetrahydro-[1,5]oxazocino[4,3,2-de]quinazolin-10-yl)-7-fluorobenzo[b]thiophene-3-carbonitrile] | 0.022 | 0.00065
2 | CN1c2nc(OC[C@@]34CCCN3C[C@H](F)C4)nc3c(F)c(-c4cc(N)cc(Cl)c4C(F)(F)F)nc(c23)OCC12COC2 [Example 23, 3-chloro-5-(4-fluoro-2-(((2R,7aS)-2-fluorotetrahydro-1H-pyrrolizin-7a(5H)-yl)methoxy)-10-methyl-8H, 10H-7-oxa-1,3,6,10-tetraazaspiro[cyclohepta[de]naphthalene-9,3′-oxetan]-1(10a), 2,3a, 3a^1(6a), 5-pentaen-5-yl)-4-(trifluoromethyl)aniline] | 0.338 | 0.0092
3 | C#Cc1c(F)ccc2cc(O)cc(-c3nc4c5c(nc(OC[C@@]67CCCN6C[C@H](F)C7)nc5c3F)N(C3CCC3)CCCO4)c12 [Example 13, 4-(11-cyclobutyl-4-fluoro-2-(((2R,7aS)-2-fluorotetrahydro-1H-pyrrolizin-7a(5H)-yl)methoxy)-8,9,10,11-tetrahydro-7-oxa-1,3,6,11-tetraazacycloocta[de]naphthalen-5-yl)-5-ethynyl-6-fluoronaphthalen-2-ol] | 0.141 | 0.0014
4 | CN1c2nc(OC[C@@]34CCCN3C[C@H](F)C4)nc3c(F)c(-c4cc(N)cc(Cl)c4C(F)(F)F)nc(c23)OC2CCCC21 (stereo partly drawn) [Example 45, 3-chloro-5-((7a, 10a-trans)-4-fluoro-2-(((2R,7aS)-2-fluorotetrahydro-1H-pyrrolizin-7a(5H)-yl)methoxy)-11-methyl-7a, 8,9,10,10a, 11-hexahydro-7-oxa-1,3,6,11-tetraazanaphtho[1,8-fg]azulen-5-yl)-4-(trifluoromethyl)aniline] | 0.082 | 0.0027
5 | CCN1c2nc(OC[C@@]34CCCN3C[C@H](F)C4)nc3c(F)c(-c4cc(N)cc(C)c4C(F)(F)F)nc(c23)OCCC12COC2 [Example 56, 3-(11-ethyl-4-fluoro-2-(((2R,7aS)-2-fluorotetrahydro-1H-pyrrolizin-7a(5H)-yl)methoxy)-8,9-dihydro-11H-7-oxa-1,3,6,11-tetraazaspiro[cycloocta[de]naphthalene-10,3′-oxetan]-1(11a), 2,3a, 3a^1(6a),5-pentaen-5-yl)-5-methyl-4-(trifluoromethyl)aniline] | 0.033 | 0.0012
6 | CN1c2nc(OC[C@@]34CCCN3C[C@H](F)C4)nc3c(F)c(-c4ccc(F)c5sc(N)c(C#N)c45)c(Cl)c(c23)OCCC12COC2 [Example 28, 2-amino-4-(9′-chloro-11′-fluoro-2′-(((2R,7aS)-2-fluorotetrahydro-1H-pyrrolizin-7a(5H)-yl)methoxy)-4′-methyl-6′,7′-dihydro-4′H-spiro[oxetane-3,5′-[1,5]oxazocino[4,3,2-de]quinazolin]-10′-yl)-7-fluorobenzo[b]thiophene-3-carbonitrile] | 0.206 | 0.0025
7 | Nc1cc(Cl)c(C(F)(F)F)c(-c2nc3c4c(nc(OC[C@@]56CCCN5C[C@H](F)C6)nc4c2F)N(CCO)CCO3)c1 [Example 7, 2-(5-(5-amino-3-chloro-2-(trifluoromethyl)phenyl)-4-fluoro-2-(((2R,7aS)-2-fluorotetrahydro-1H-pyrrolizin-7a(5H)-yl)methoxy)-8,9-dihydro-10H-7-oxa-1,3,6,10-tetraazacyclohepta[de]naphthalen-10-yl)ethan-1-ol] | 0.586 | 0.0025
8 | CCN1c2nc(OC[C@@]34CCCN3C[C@H](F)C4)nc3c(F)c(-c4cc(N)cc(Cl)c4C(F)(F)F)nc(c23)O[C@H]2COCC[C@@H]21 [Example 58, 3-chloro-5-((7aR,11aS)-12-ethyl-4-fluoro-2-(((2R,7aS)-2-fluorotetrahydro-1H-pyrrolizin-7a(5H)-yl)methoxy)-7a, 8,10,11,11a, 12-hexahydro-7,9-dioxa-1,3,6,12-tetraazaplciaden-5-yl)-4-(trifluoromethyl)aniline] | 0.029 | 0.00049
9 | Cc1cc(N)cc(-c2nc3c4c(nc(OC[C@@]56CCCN5C[C@H](F)C6)nc4c2F)N(C)C2(CCO3)CC2)c1C(F)(F)F [Example 53, 3-(4-fluoro-2-(((2R,7aS)-2-fluorotetrahydro-1H-pyrrolizin-7a(5H)-yl)methoxy)-11-methyl-8,9-dihydro-11H-7-oxa-1,3,6,11-tetraazaspiro[cycloocta[de]naphthalene-10,1′-cyclopropan]-1(11a), 2,3a, 3 al(6a), 5-pentaen-5-yl)-5-methyl-4-(trifluoromethyl)aniline] | 0.026 | 0.00063
10 | CCc1c(F)ccc2cc(O)cc(-c3nc4c5c(nc(OC[C@@]67CCCN6C[C@H](F)C7)nc5c3F)N(C)C(C)CCO4)c12 (stereo partly drawn) [Example 16, 5-ethyl-6-fluoro-4-(4-fluoro-2-(((2R,7aS)-2-fluorotetrahydro-1H-pyrrolizin-7a(5H)-yl)methoxy)-10,11-dimethyl-8,9,10,11-tetrahydro-7-oxa-1,3,6,11-tetraazacycloocta[de]naphthalen-5-yl)naphthalen-2-ol] | 0.05 | 0.0014
11 | Cc1cc(N)cc(-c2nc3c4c(nc(OC[C@@]56CCCN5C[C@H](F)C6)nc4c2F)N(C)CCO3)c1C(F)(F)F [Example 3, 3-(4-fluoro-2-(((2R,7aS)-2-fluorotetrahydro-1H-pyrrolizin-7a(5H)-yl)methoxy)-10-methyl-9,10-dihydro-8H-7-oxa-1,3,6,10-tetraazacyclohepta[de]naphthalen-5-yl)-5-methyl-4-(trifluoromethyl)aniline] | 0.402 | 0.015
12 | Nc1cc(Cl)c(C(F)(F)F)c(-c2nc3c4c(nc(OC[C@@]56CCCN5C[C@H](F)C6)nc4c2F)N(C2CC2)CCO3)c1 [Example 8, 3-chloro-5-(10-cyclopropyl-4-fluoro-2-(((2R,7aS)-2-fluorotetrahydro-1H-pyrrolizin-7a(5H)-yl)methoxy)-9,10-dihydro-8H-7-oxa-1,3,6,10-tetraazacyclohepta[de]naphthalen-5-yl)-4-(trifluoromethyl)aniline] | 0.716 | 0.0099
13 | CC1COc2nc(-c3cc(N)cc(Cl)c3C(F)(F)F)c(F)c3nc(OC[C@@]45CCCN4C[C@H](F)C5)nc(c23)N1C (stereo partly drawn) [Example 22, 3-chloro-5-(4-fluoro-2-(((2R,7aS)-2-fluorotetrahydro-1H-pyrrolizin-7a(5H)-yl)methoxy)-9,10-dimethyl-9,10-dihydro-8H-7-oxa-1,3,6,10-tetraazacyclohepta[de]naphthalen-5-yl)-4-(trifluoromethyl)aniline] | 0.303 | 0.0068
14 | CN1c2nc(OC[C@@]34CCCN3C[C@H](F)C4)nc3c(F)c(-c4cc(N)cc(Cl)c4C(F)(F)F)nc(c23)O[C@H]2CCCC[C@@H]21 [Example 46, 3-chloro-5-((7aS,11aS)-4-fluoro-2-(((2R,7aS)-2-fluorotetrahydro-1H-pyrrolizin-7a(5H)-yl)methoxy)-12-methyl-7a, 8,10,11,11a, 12-hexahydro-9H-7-oxa-1,3,6,12-tetraazapleiaden-5-yl)-4-(trifluoromethyl)aniline] | 0.037 | 0.00048
